Assays:
[1] = WST-1 cytotoxicity study in MDCK cells; format: cell-based; conditions: dog, MDCK cells (ASBT-MDCK or OCTN2-MDCK, not specified)
[2] = target: T1, human apical sodium-dependent bile acid transporter (ASBT; SLC10A2) (Homo sapiens, UniProt Q12908); experiment: ASBT inhibition: taurocholate uptake into ASBT-MDCK cells; format: cell-based; conditions: for ASBT inhibitor: with consideration of cytotoxicity
T1 sequence (Q12908 1-348): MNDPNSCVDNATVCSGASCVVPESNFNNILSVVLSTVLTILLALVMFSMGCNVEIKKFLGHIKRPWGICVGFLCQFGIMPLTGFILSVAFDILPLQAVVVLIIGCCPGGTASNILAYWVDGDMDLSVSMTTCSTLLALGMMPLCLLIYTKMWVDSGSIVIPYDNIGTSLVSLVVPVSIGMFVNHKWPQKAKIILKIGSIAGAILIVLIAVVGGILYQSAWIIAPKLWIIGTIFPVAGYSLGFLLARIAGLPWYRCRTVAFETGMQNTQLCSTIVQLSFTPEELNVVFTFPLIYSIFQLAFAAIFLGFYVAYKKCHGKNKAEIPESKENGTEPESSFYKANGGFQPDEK

[3] = target: T2, excitatory amino acid transporter 4 (EAAT4; SLC1A6) (Homo sapiens, UniProt P48664); experiment: EAAT4 inhibition: glutamate uptake into EAAT4-HEK cells; format: cell-based; conditions: for EAAT4 inhibitor: with consideration of cytotoxicity
T2 sequence (P48664 1-564): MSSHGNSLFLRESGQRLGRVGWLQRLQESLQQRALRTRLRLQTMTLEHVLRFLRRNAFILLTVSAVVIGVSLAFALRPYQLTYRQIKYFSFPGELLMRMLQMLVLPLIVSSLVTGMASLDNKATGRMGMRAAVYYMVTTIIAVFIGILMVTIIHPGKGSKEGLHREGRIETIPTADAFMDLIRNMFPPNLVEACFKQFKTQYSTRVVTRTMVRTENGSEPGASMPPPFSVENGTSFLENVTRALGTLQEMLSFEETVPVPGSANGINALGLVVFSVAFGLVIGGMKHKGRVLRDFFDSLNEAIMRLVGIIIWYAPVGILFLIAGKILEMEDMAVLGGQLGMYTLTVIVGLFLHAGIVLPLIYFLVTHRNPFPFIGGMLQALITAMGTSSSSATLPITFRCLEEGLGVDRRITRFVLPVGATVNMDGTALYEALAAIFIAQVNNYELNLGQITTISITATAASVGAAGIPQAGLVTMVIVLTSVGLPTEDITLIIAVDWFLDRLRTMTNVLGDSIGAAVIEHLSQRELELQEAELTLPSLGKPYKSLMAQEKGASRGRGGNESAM

[4] = target: T1, human apical sodium-dependent bile acid transporter (ASBT; SLC10A2); conditions: known inhibitors selected for this study; cited from earlier work
[5] = system: HEK cells; conditions: for cytotoxicity in HEK cells (in words): cytotoxic if cell viability 80% or less, 10 min exposure
[6] = target: T3, human organic cation/carnitine transporter (OCTN2; SLC22A5) (Homo sapiens, UniProt O76082); experiment: OCTN2 inhibition: L-carnitine uptake into OCTN2-MDCK cells; format: cell-based; conditions: for OCTN2 inhibitor: with consideration of cytotoxicity
T3 sequence (O76082 1-557): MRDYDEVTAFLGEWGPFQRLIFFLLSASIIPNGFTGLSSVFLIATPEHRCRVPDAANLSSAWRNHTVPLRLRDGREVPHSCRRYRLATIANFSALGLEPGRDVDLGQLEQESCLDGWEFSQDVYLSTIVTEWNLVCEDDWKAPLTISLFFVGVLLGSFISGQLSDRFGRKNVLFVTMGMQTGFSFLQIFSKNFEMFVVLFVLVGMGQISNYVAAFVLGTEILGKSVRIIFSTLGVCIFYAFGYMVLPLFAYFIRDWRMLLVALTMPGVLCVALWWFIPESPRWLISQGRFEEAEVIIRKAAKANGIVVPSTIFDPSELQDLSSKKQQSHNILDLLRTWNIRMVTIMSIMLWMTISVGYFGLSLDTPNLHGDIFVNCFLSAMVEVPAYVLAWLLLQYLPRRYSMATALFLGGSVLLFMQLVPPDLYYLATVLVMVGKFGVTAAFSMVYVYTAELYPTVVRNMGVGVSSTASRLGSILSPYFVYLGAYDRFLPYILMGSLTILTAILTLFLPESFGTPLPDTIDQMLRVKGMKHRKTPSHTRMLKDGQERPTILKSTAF

[7] = system: MDCK cells; experiment: WST-1 cytotoxicity study in MDCK cells; format: cell-based; conditions: for cytotoxicity in MDCK cells (in words): cytotoxic if cell viability 80% or less, 10 min exposure
[8] = EAAT4-HEK, drug concentration not given

SMILES | EAAT4 inhibitor [3] | cytotoxicity in HEK cells (in words) [5] | cytotoxicity in MDCK cells (in words) [7] | ASBT inhibitor [2] | further results
CC(C)n1c(/C=C/C(O)CC(O)CC(=O)O)c(-c2ccc(F)cc2)c2ccccc21 (stereo not shown) [Fluvastatin, fluvastatin] | inhibited all three transporters | without cytotoxicity |  |  | viability at 10 min [1]: 107%; taurocholate uptake [2]: 4.51%; ASBT inhibition ([2]; ASBT-MDCK, drug concentration not given): over 90%; EAAT4 inhibition [3, 8]: ~35%; glutamate uptake [3, 8]: about 60%; ASBT inhibition, previously reported [4]: competitively inhibits ASBT; OCTN2 inhibition (reduction of L-carnitine uptake) ([6]; OCTN2-MDCK, drug concentration not given): ~35%
Clc1ccc(C(Cn2ccnc2)OCc2ccsc2Cl)c(Cl)c1 (stereo not shown) [Tioconazole, tioconazole] | non-inhibitors of EAAT4 | reduced cell viability in HEK cells | not in MDCK cells |  | 
COc1ccc2c(c1)c(CC(=O)O)c(C)n2C(=O)c1ccc(Cl)cc1 [Indomethacin, indomethacin] |  |  |  | only inhibited ASBT | OCTN2 inhibitor [6]: only inhibited ASBT
CN(C)CCCN1c2ccccc2Sc2ccc(Cl)cc21 [chlorpromazine] |  |  | not cytotoxic in MDCK cells |  | 
COC(=O)C1=C(C)NC(C)=C(C(=O)OCCN(C)Cc2ccccc2)C1c1cccc([N+](=O)[O-])c1 (stereo not shown) [Nicardipine, nicardipine] |  |  | cytotoxic to MDCK cells | only inhibited ASBT | 
COc1ccc([C@@H]2Sc3ccccc3N(CCN(C)C)C(=O)[C@@H]2OC(C)=O)cc1 [Diltiazem, diltiazem] |  |  |  |  | ASBT inhibition, previously reported [4]: known to inhibit both transporters
CC[C@H](C)C(=O)O[C@H]1C[C@@H](C)C=C2C=C[C@H](C)[C@H](CC[C@@H]3C[C@@H](O)CC(=O)O3)[C@H]21 [Lovastatin, lovastatin] | did not appreciably inhibit EAAT4 |  |  |  | 
CCC(C)(C)C(=O)O[C@H]1C[C@@H](C)C=C2C=C[C@H](C)[C@H](CC[C@@H]3C[C@@H](O)CC(=O)O3)[C@H]21 [Simvastatin, simvastatin] | did not appreciably inhibit EAAT4 |  |  |  | 
CCOC(=O)C1=C(COCCN)NC(C)=C(C(=O)OC)C1c1ccccc1Cl (stereo not shown) [Amlodipine, amlodipine] |  |  | cytotoxic to MDCK cells |  | cells non-viable ([7]; MDCK cells): 60%; viability at 10 min, 100 μM [1]: 101 ± 6%; viability at 10 min, 500 μM [1]: 39.3%
CN(C)CCC(c1ccc(Cl)cc1)c1ccccn1 (stereo not shown) [Chlorpheniramine, chlorpheniramine] |  |  |  | only inhibited OCTN2 | 
COC(=O)C1=C(C)NC(C)=C(C(=O)OCC(C)C)C1c1ccccc1[N+](=O)[O-] (stereo not shown) [Nisoldipine, nisoldipine] |  |  | cytotoxic to MDCK cells | only inhibited ASBT | viability at 10 min, 100 μM [1]: 56%; OCTN2 inhibitor [6]: not classed as OCTN2 inhibitors
CSc1ccc2c(c1)N(CCC1CCCCN1C)c1ccccc1S2 (stereo not shown) [Thioridazine, thioridazine] | non-inhibitors of EAAT4 | reduced cell viability in HEK cells | not cytotoxic in MDCK cells |  | ASBT inhibition, previously reported [4]: known to inhibit both transporters; viable cells / cell viability ([5]; HEK cells, 10 min, drug concentration not given): 73.5%
CN1CCN(C2=Nc3cc(Cl)ccc3Nc3ccccc32)CC1 [Clozapine, clozapine] | non-inhibitors of EAAT4 | reduced cell viability in HEK cells | not cytotoxic in MDCK cells |  | 

Source: PMC2944038 (Biochemical pharmacology, 2010)
